Where “and” joins values, the source holds several entries; their conditions need not be identical. Equal values may be shown once. Toxic doses and inconclusive results are not listed. The calls were made as follows: active = survival T/C of 150% or more; inactive = T/C below 125% in these data. Square brackets hold non-standard residues; d marks the D form. Peptide text beside a SMILES is read from it. ξ: configuration not given here. ξAbu = CCC(N)C(=O)O
System: P388 leukemia ip, CD2F1 mice, survival T/C
Experiment: NCI In Vivo Anticancer Drug Screen. Data for tumor model P388 Leukemia (intraperitoneal) in CD2F1 (CDF1) mice
Details: endpoint: median survival time, higher = longer survival
Summary of the method: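 Mice carrying the transplanted tumor received test compound or vehicle. Survival was recorded in each group, and the value is the treated-group measurement divided by that of the vehicle-treated control group.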

[1] = dose: 60.0 mg/kg/injection, schedule: Q01DX005 (ip), vehicle: saline
[2] = dose: 25.0 mg/kg/injection, schedule: Q01DX009 (ip), vehicle: saline with Tween-80
[3] = dose: 50.0 mg/kg/injection, schedule: Q01DX009 (ip), vehicle: saline with Tween-80
[4] = dose: 100.0 mg/kg/injection, schedule: Q01DX009 (ip), vehicle: saline with Tween-80
[5] = dose: 200.0 mg/kg/injection, schedule: Q01DX009 (ip), vehicle: saline with Tween-80
[6] = dose: 50.0 mg/kg/injection, schedule: Q01DX005 (ip), vehicle: Klucel (hydroxypropylcellulose) (HPC)
[7] = dose: 100.0 mg/kg/injection, schedule: Q01DX005 (ip), vehicle: Klucel (hydroxypropylcellulose) (HPC)
[8] = dose: 200.0 mg/kg/injection, schedule: Q01DX005 (ip), vehicle: Klucel (hydroxypropylcellulose) (HPC)
[9] = dose: 100.0 mg/kg/injection, schedule: Q04DX003 (ip), vehicle: saline with Tween-80
[10] = dose: 200.0 mg/kg/injection, schedule: Q04DX003 (ip), vehicle: saline with Tween-80
[11] = dose: 400.0 mg/kg/injection, schedule: Q04DX003 (ip), vehicle: saline with Tween-80
[12] = dose: 50.0 mg/kg/injection, schedule: Q01DX005 (ip), vehicle: saline with Tween-80
[13] = dose: 100.0 mg/kg/injection, schedule: Q01DX005 (ip), vehicle: saline with Tween-80
[14] = dose: 200.0 mg/kg/injection, schedule: Q01DX005 (ip), vehicle: saline with Tween-80
[15] = dose: 50.0 mg/kg/injection, schedule: Q01DX005 (ip), vehicle: saline
[16] = dose: 100.0 mg/kg/injection, schedule: Q01DX005 (ip), vehicle: saline
[17] = dose: 200.0 mg/kg/injection, schedule: Q01DX005 (ip), vehicle: saline
[18] = dose: 12.5 mg/kg/injection, schedule: Q01DX009 (ip), vehicle: saline
[19] = dose: 25.0 mg/kg/injection, schedule: Q01DX009 (ip), vehicle: saline
[20] = dose: 50.0 mg/kg/injection, schedule: Q01DX009 (ip), vehicle: Klucel (hydroxypropylcellulose) (HPC)
[21] = dose: 100.0 mg/kg/injection, schedule: Q01DX009 (ip), vehicle: Klucel (hydroxypropylcellulose) (HPC)

Measured: T/C

C/C(=N/N=C(N)N)c1cn(C(=N)N)nc1C
inactive: dose: 7.5 mg/kg/injection, schedule: Q01DX005 (ip), vehicle: saline 100 % of control and 101 % of control | dose: 15.0 mg/kg/injection, schedule: Q01DX005 (ip), vehicle: saline 109 % of control and 95 % of control | dose: 30.0 mg/kg/injection, schedule: Q01DX005 (ip), vehicle: saline 101 % of control and 95 % of control | [1] 101 % of control and 107 % of control | dose: 120.0 mg/kg/injection, schedule: Q01DX005 (ip), vehicle: Klucel (hydroxypropylcellulose) (HPC) 99 % of control | dose: 240.0 mg/kg/injection, schedule: Q01DX005 (ip), vehicle: Klucel (hydroxypropylcellulose) (HPC) 117 % of control

Cc1ccc(C)c2c1-c1ccccc1S2(=O)=O
inactive: [2] 110 % of control | [3] 111 % of control | [4] 109 % of control | [5] 102 % of control

CN1CCCCC1CC(O)c1ccccc1 (stereo not drawn)
inactive: dose: 12.5 mg/kg/injection, schedule: Q01DX005 (ip), vehicle: Klucel (hydroxypropylcellulose) (HPC) 103 % of control | dose: 25.0 mg/kg/injection, schedule: Q01DX005 (ip), vehicle: Klucel (hydroxypropylcellulose) (HPC) 105 % of control | [6] 100 % of control

CC(=O)c1ccc(N=NN(C)c2ccc(C(C)=O)cc2)cc1
inactive: [3] 108 % of control | [4] 107 % of control | [5] 101 % of control

COc1ccc2c(C)cc(N/N=C/c3ccccc3)nc2c1
inactive: [6] 89 % of control | [7] 98 % of control | [8] 98 % of control

COc1cc2c[n+]3c4c(cccc4c2cc1OC)CC3
inactive: dose: 25.0 mg/kg/injection, schedule: Q01DX009 (ip), vehicle: water 108 % of control | dose: 50.0 mg/kg/injection, schedule: Q01DX009 (ip), vehicle: water 118 % of control | dose: 100.0 mg/kg/injection, schedule: Q01DX009 (ip), vehicle: water 114 % of control

Cc1cc(C)nc(NCCCCCCNc2nc(C)cc(C)n2)n1
inactive: [9] 101 % of control | [10] 90 % of control | [11] 92 % of control

CN(C)C1CC(N2c3ccccc3Sc3ccc(Cl)cc32)C1 (stereo not drawn)
inactive: dose: 50.0 mg/kg/injection, schedule: Q04DX003 (ip), vehicle: Klucel (hydroxypropylcellulose) (HPC) 107 % of control | dose: 100.0 mg/kg/injection, schedule: Q04DX003 (ip), vehicle: Klucel (hydroxypropylcellulose) (HPC) 104 % of control | dose: 200.0 mg/kg/injection, schedule: Q04DX003 (ip), vehicle: Klucel (hydroxypropylcellulose) (HPC) 107 % of control

CC(=O)[C@@H]1C[C@H]1C(=O)c1ccccc1
inactive: dose: 67.5 mg/kg/injection, schedule: Q04DX002 (ip), vehicle: Klucel (hydroxypropylcellulose) (HPC) 96 % of control | dose: 135.0 mg/kg/injection, schedule: Q04DX002 (ip), vehicle: Klucel (hydroxypropylcellulose) (HPC) 94 % of control | dose: 270.0 mg/kg/injection, schedule: Q04DX002 (ip), vehicle: Klucel (hydroxypropylcellulose) (HPC) 96 % of control

COc1ccccc1OCC(O)CNc1ccc(Cl)cc1C(=O)c1ccccc1Cl (stereo not drawn)
inactive: [12] 90 % of control | [13] 90 % of control | [14] 88 % of control

CCC(N)C(=O)NCC(=O)NCC(=O)O (stereo not drawn) (H-[ξAbu]-Gly-Gly-OH)
inactive: [15] 103 % of control | [16] 103 % of control | [17] 103 % of control

N=C(N)SCCCC(=O)O
inactive: [18] 102 % of control | [19] 120 % of control | dose: 50.0 mg/kg/injection, schedule: Q01DX009 (ip), vehicle: saline 95 % of control

CCOC(=O)N1c2ccccc2C(c2ccccc2)=NC1(C)C#N (stereo not drawn)
inactive: [12] 97 % of control | [13] 99 % of control | [14] 99 % of control

C=CC(=NC(C)(C)C)Nc1c(Cl)cccc1Cl
inactive: dose: 0.79 mg/kg/injection, schedule: Q01DX009 (ip), vehicle: saline 100 % of control | dose: 1.56 mg/kg/injection, schedule: Q01DX009 (ip), vehicle: saline 96 % of control | dose: 3.12 mg/kg/injection, schedule: Q01DX009 (ip), vehicle: saline 108 % of control | dose: 6.25 mg/kg/injection, schedule: Q01DX009 (ip), vehicle: saline with Tween-80 114 % of control | dose: 12.5 mg/kg/injection, schedule: Q01DX009 (ip), vehicle: saline with Tween-80 119 % of control | [18] 109 % of control | [19] 116 % of control

O=S1(=O)CC2(N3CCOCC3)CCCCCC21 (stereo not drawn)
inactive: [9] 103 % of control | [10] 100 % of control | [11] 100 % of control

COC(=O)C1(C2CCCCCCCCCCC2=O)NC(=S)NC(=O)C1C#N (stereo not drawn)
inactive: [1] 96 % of control | dose: 120.0 mg/kg/injection, schedule: Q01DX005 (ip), vehicle: saline 92 % of control | dose: 240.0 mg/kg/injection, schedule: Q01DX005 (ip), vehicle: saline 92 % of control

COC1=CC(=N/Br)/C=CC/1=N/Br
inactive: [15] 98 % of control and 103 % of control | [16] 99 % of control and 100 % of control and 105 % of control | [17] 99 % of control and 107 % of control and 120 % of control

COc1cccc(C2C(C#N)C(=O)NC(=O)C2C#N)c1 (stereo not drawn)
inactive: [20] 102 % of control | [21] 100 % of control | dose: 200.0 mg/kg/injection, schedule: Q01DX009 (ip), vehicle: Klucel (hydroxypropylcellulose) (HPC) 99 % of control

CN1C2=CC=CC=CC2=[N+](C)C1C(=C=[N-])C#N (stereo not drawn)
inactive: dose: 15.0 mg/kg/injection, schedule: Q01DX005 (ip), vehicle: saline with Tween-80 104 % of control | dose: 30.0 mg/kg/injection, schedule: Q01DX005 (ip), vehicle: saline with Tween-80 107 % of control | dose: 60.0 mg/kg/injection, schedule: Q01DX005 (ip), vehicle: saline with Tween-80 107 % of control and 115 % of control

O=C(O)c1ccccc1SSc1ccccc1C(=O)O
inactive: [20] 96 % of control | [21] 102 % of control

CC1(c2ccccn2)C(=O)c2ccccc2C1=O
inactive: [6] 98 % of control | [7] 100 % of control | [8] 99 % of control

N#Cc1cc2ccncc2c2ccccc12
inactive: [2] 90 % of control | [3] 93 % of control and 95 % of control | [4] 98 % of control | [5] 106 % of control and 89 % of control | dose: 400.0 mg/kg/injection, schedule: Q01DX009 (ip), vehicle: saline with Tween-80 114 % of control

C[S+]1CCC(C(=O)[O-])N1 (stereo not drawn)
inactive: [15] 101 % of control | [16] 98 % of control | [17] 98 % of control

Source: PubChem BioAssay AID330 (DTP/NCI, 2004)
